The source of these data is PubChem BioAssay AID1259407 (Chemical Carcinogenesis Research Information System (CCRIS), 2018).

For the series, the system named is CCRIS mutagenicity, Ames/micronucleus/aberration tests. As to the kind of experiment: CCRIS mutagenicity studies.
Setting [1] is: Test System: AMES SALMONELLA TYPHIMURIUM, Strain/Indicator: TA98, Metabolic Activation: NONE, Method: STANDARD PLATE.
Where [2] appears, read: Test System: AMES SALMONELLA TYPHIMURIUM, Strain/Indicator: TA98, Metabolic Activation: RAT, LIVER, S-9, AROCLOR 1254, Method: STANDARD PLATE.

Activity calls are given as the source filed them. No rule for the calls is given here.

Regarding `O=C1Nc2ccc(Cl)cc2C(c2ccccc2)=NC1O` (configuration not stated), the mutagenic call reads like this: (End Point: IN VITRO MICRONUCLEUS, Test System: HUMAN - HUMAN AMNIOTIC FLUID FIBROBLAST-LIKE (AFFL) CELLS, Metabolic Activation: NONE) “active; positive”; (End Point: IN VITRO MICRONUCLEUS, Test System: MOUSE LYMPHOMA L5178Y CELLS, Metabolic Activation: NONE) “active; positive”; (End Point: IN VITRO MICRONUCLEUS, Test System: SYRIAN HAMSTER EMBRYO FIBROBLAST (SHE) CELLS, Metabolic Activation: NONE) “active; positive”; (Test System: AMES SALMONELLA TYPHIMURIUM, Strain/Indicator: TA97, Metabolic Activation: HAMSTER, LIVER, S-9, AROCLOR 1254 (10%), Method: PREINCUBATION) “inactive; negative”; (Test System: AMES SALMONELLA TYPHIMURIUM, Strain/Indicator: TA97, Metabolic Activation: HAMSTER, LIVER, S-9, AROCLOR 1254 (30%), Method: PREINCUBATION) “inactive; negative”; (Test System: AMES SALMONELLA TYPHIMURIUM, Strain/Indicator: TA97, Metabolic Activation: NONE, Method: PREINCUBATION) “inactive; negative”. Also, the mutagenic call runs as follows: (Test System: AMES SALMONELLA TYPHIMURIUM, Strain/Indicator: TA97, Metabolic Activation: RAT, LIVER, S-9, AROCLOR 1254 (30%), Method: PREINCUBATION) “inactive; negative”; (Test System: AMES SALMONELLA TYPHIMURIUM, Strain/Indicator: TA98, Metabolic Activation: HAMSTER, LIVER, S-9, AROCLOR 1254 (10 OR 30%), Method: PREINCUBATION) “inactive; negative”; (Test System: AMES SALMONELLA TYPHIMURIUM, Strain/Indicator: TA98, Metabolic Activation: NONE, Method: PREINCUBATION) “inactive; negative”; under setting [1], “inactive; negative”; (Test System: AMES SALMONELLA TYPHIMURIUM, Strain/Indicator: TA98, Metabolic Activation: RAT, LIVER, S-9, AROCLOR 1254 (10 OR 30%), Method: PREINCUBATION) “inactive; negative”; under setting [2], “inactive; negative”. The mutagenic call is, setting by setting: (Test System: AMES SALMONELLA TYPHIMURIUM, Strain/Indicator: TA100, Metabolic Activation: HAMSTER, LIVER, S-9, AROCLOR 1254 (10%), Method: PREINCUBATION) “inactive; negative”; (Test System: AMES SALMONELLA TYPHIMURIUM, Strain/Indicator: TA100, Metabolic Activation: HAMSTER, LIVER, S-9, AROCLOR 1254 (30%), Method: PREINCUBATION) “inactive; negative”; (Test System: AMES SALMONELLA TYPHIMURIUM, Strain/Indicator: TA100, Metabolic Activation: NONE, Method: PREINCUBATION) “inactive; negative”; (Test System: AMES SALMONELLA TYPHIMURIUM, Strain/Indicator: TA100, Metabolic Activation: NONE, Method: STANDARD PLATE) “inactive; negative”; (Test System: AMES SALMONELLA TYPHIMURIUM, Strain/Indicator: TA100, Metabolic Activation: RAT, LIVER, S-9, AROCLOR 1254 (10%), Method: PREINCUBATION) “inactive; negative”; (Test System: AMES SALMONELLA TYPHIMURIUM, Strain/Indicator: TA100, Metabolic Activation: RAT, LIVER, S-9, AROCLOR 1254 (30%), Method: PREINCUBATION) “inactive; negative”. Besides, the mutagenic call by setting is: (Test System: AMES SALMONELLA TYPHIMURIUM, Strain/Indicator: TA100, Metabolic Activation: RAT, LIVER, S-9, AROCLOR 1254, Method: STANDARD PLATE) “inactive; negative”; (Test System: AMES SALMONELLA TYPHIMURIUM, Strain/Indicator: TA102, Metabolic Activation: HAMSTER, LIVER, S-9, AROCLOR 1254 (10%), Method: PREINCUBATION) “inactive; negative”; (Test System: AMES SALMONELLA TYPHIMURIUM, Strain/Indicator: TA102, Metabolic Activation: HAMSTER, LIVER, S-9, AROCLOR 1254 (30%), Method: PREINCUBATION) “inactive; negative”; (Test System: AMES SALMONELLA TYPHIMURIUM, Strain/Indicator: TA102, Metabolic Activation: NONE, Method: PREINCUBATION) “inactive; negative”; (Test System: AMES SALMONELLA TYPHIMURIUM, Strain/Indicator: TA102, Metabolic Activation: RAT, LIVER, S-9, AROCLOR 1254 (10%), Method: PREINCUBATION) “inactive; negative”; (Test System: AMES SALMONELLA TYPHIMURIUM, Strain/Indicator: TA102, Metabolic Activation: RAT, LIVER, S-9, AROCLOR 1254 (30%), Method: PREINCUBATION) “inactive; negative”. The mutagenic call reads like this: (Test System: AMES SALMONELLA TYPHIMURIUM, Strain/Indicator: TA1535, Metabolic Activation: HAMSTER, LIVER, S-9, AROCLOR 1254 (10%), Method: PREINCUBATION) “inactive; negative”; (Test System: AMES SALMONELLA TYPHIMURIUM, Strain/Indicator: TA1535, Metabolic Activation: HAMSTER, LIVER, S-9, AROCLOR 1254 (30%), Method: PREINCUBATION) “inactive; negative”; (Test System: AMES SALMONELLA TYPHIMURIUM, Strain/Indicator: TA1535, Metabolic Activation: NONE, Method: PREINCUBATION) “inactive; negative”; (Test System: AMES SALMONELLA TYPHIMURIUM, Strain/Indicator: TA1535, Metabolic Activation: NONE, Method: STANDARD PLATE) “inactive; negative”; (Test System: AMES SALMONELLA TYPHIMURIUM, Strain/Indicator: TA1535, Metabolic Activation: RAT, LIVER, S-9, AROCLOR 1254 (10%), Method: PREINCUBATION) “inactive; negative”; (Test System: AMES SALMONELLA TYPHIMURIUM, Strain/Indicator: TA1535, Metabolic Activation: RAT, LIVER, S-9, AROCLOR 1254 (30%), Method: PREINCUBATION) “inactive; negative”. The mutagenic call was “inactive; negative” (Test System: AMES SALMONELLA TYPHIMURIUM, Strain/Indicator: TA1535, Metabolic Activation: RAT, LIVER, S-9, AROCLOR 1254, Method: STANDARD PLATE); “inactive; negative” (Test System: AMES SALMONELLA TYPHIMURIUM, Strain/Indicator: TA1537, Metabolic Activation: NONE, Method: STANDARD PLATE); “inactive; negative” (Test System: AMES SALMONELLA TYPHIMURIUM, Strain/Indicator: TA1537, Metabolic Activation: RAT, LIVER, S-9, AROCLOR 1254, Method: STANDARD PLATE).

With `Cc1cc(N=Nc2ccccc2)c(N)cc1N`, the mutagenic call is, setting by setting: (Test System: AMES SALMONELLA TYPHIMURIUM, Strain/Indicator: TA100, Metabolic Activation: HUMAN, LIVER, S-9, Method: PREINCUBATION) “inactive; negative”; (Test System: AMES SALMONELLA TYPHIMURIUM, Strain/Indicator: TA100, Metabolic Activation: RAT, LIVER, HEPATOCYTES, Method: PREINCUBATION) “inactive; negative”; (Test System: AMES SALMONELLA TYPHIMURIUM, Strain/Indicator: TA100, Metabolic Activation: RAT, LIVER, S-9, BETA-NAPHTHOFLAVONE, Method: PREINCUBATION) “active; positive”; (Test System: AMES SALMONELLA TYPHIMURIUM, Strain/Indicator: TA100, Metabolic Activation: RAT, LIVER, S-9, PHENOBARBITAL, Method: PREINCUBATION) “active; positive”; (Test System: AMES SALMONELLA TYPHIMURIUM, Strain/Indicator: TA100, Metabolic Activation: RAT, LIVER, S-9, Method: PREINCUBATION) “active; positive”; (Test System: UDS RODENT HEPATOCYTES, Strain/Indicator: THY INCORP, Metabolic Activation: NONE, Method: AUTORADIOGRAPHY) “active; positive”.

`O=[N+]([O-])c1ccc2cc3c(cc2c1)[C@H](O)[C@@H](O)C=C3`: the mutagenic call under setting [1] was “active; positive” and the mutagenic call under setting [2] is “active; positive”.

In the case of `C=CC1=C(C)/C(=C/c2[nH]c(Cc3[nH]c(/C=C4\NC(=O)C(C)=C4C=C)c(C)c3CCC(=O)O)c(CCC(=O)O)c2C)NC1=O`, the mutagenic call (Test System: Ames Salmonella typhimurium, Strain/Indicator: TA98, Metabolic Activation: Liver, S-9, Method: Preincubation) is “inactive; negative”; the mutagenic call (Test System: Ames Salmonella typhimurium, Strain/Indicator: TA98, Metabolic Activation: None, Method: Preincubation) is “inactive; negative”; the mutagenic call (Test System: Ames Salmonella typhimurium, Strain/Indicator: TA100, Metabolic Activation: Liver, S-9, Method: Preincubation) was “inactive; negative”; the mutagenic call (Test System: Ames Salmonella typhimurium, Strain/Indicator: TA100, Metabolic Activation: None, Method: Preincubation) is “inactive; negative”; the mutagenic call (Test System: Ames Salmonella typhimurium, Strain/Indicator: TA102, Metabolic Activation: Liver, S-9, Method: Preincubation) was “inactive; negative”; the mutagenic call (Test System: Ames Salmonella typhimurium, Strain/Indicator: TA102, Metabolic Activation: None, Method: Preincubation) was “inactive; negative”.
